Starred links: 1 amine or outer side, 2 acyl side, 3 side chain; linkers in the order of their positions; H or OH if unused. Non-standard residues stand in square brackets, D forms with d. Residues, ends and D or L forms follow the SMILES beside them. Groups on a side chain read outwards from the residue. *: point of attachment. C18 diacid = O=C(O)CCCCCCCCCCCCCCCCC(=O)*; γGlu = O=C(O)[C@H](CCC(=O)[*:2])N[*:1]; Ac4c = NC1(C(=O)O)CCC1; AEEA = NCCOCCOCC(=O)O; Aib = CC(C)(N)C(=O)O
What was measured:
[1] = Assay (III) ThT fibrillation assay for physical stability; assay type: physicochemical; conditions: 250 μM in 10 mM HEPES buffer, 37° C., shaking 960 rpm
Summary of the method: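 Glucagon derivative at 250 μM in 10 mM HEPES pH 7.5 with 1 μM ThT was incubated at 37 °C under 960 rpm orbital shaking. Fluorescence (ex 444/em 485 nm) was read every 20 min and fitted for lag time (t0−2τ) and kapp (1/τ). Recovery was soluble peptide after centrifugation/filtration, by RP-HPLC, as percent of initial.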

human GLP-1 receptor = target: T1, human GLP-1 receptor (Homo sapiens, UniProt P43220); experiment: Assay (I)(a) GLP-1 receptor activation, CRE luciferase reporter gene assay in BHK cells; assay type: cell-based; conditions: without presence of serum albumin; read-out: GLP-1R EC50 (pM) [Assay (I)(a)]
T1 construct: expressed in transfected cells; host or cells: membranes of BHK cells (parent BHKTS13), clone FCW467-12A
Summary of the method: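 Stable BHK clone expressing human GLP-1 receptor with CRE-driven firefly luciferase, 5×10EE3 cells/well in medium with 2% ovalbumin and 0.2% Pluronic F-68. Compounds at 1×10EE-13 to 1×10EE-6 M final, 3 h at 37° C.; luminescence read, EC50 (pM) from four-parameter fit.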

T1 sequence (P43220 24-463): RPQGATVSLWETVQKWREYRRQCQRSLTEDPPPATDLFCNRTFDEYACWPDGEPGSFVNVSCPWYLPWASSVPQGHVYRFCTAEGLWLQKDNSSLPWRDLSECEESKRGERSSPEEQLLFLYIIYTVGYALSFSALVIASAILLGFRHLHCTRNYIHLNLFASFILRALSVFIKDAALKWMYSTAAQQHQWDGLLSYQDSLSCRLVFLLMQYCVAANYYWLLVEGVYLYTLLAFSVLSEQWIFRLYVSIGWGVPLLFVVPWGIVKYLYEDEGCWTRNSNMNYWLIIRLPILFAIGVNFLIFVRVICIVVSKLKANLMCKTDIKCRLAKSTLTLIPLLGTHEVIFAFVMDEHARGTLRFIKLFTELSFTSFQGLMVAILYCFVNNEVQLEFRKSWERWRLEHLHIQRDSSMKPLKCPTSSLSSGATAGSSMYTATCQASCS

Q: Which results are given for `CC[C@H](C)[C@H](NC(=O)[C@H](CC(C)C)NC(=O)[C@H](Cc1c[nH]c2ccccc12)NC(=O)[C@H](CCC(N)=O)NC(=O)[C@@H](NC(=O)[C@H](Cc1ccccc1)NC(=O)[C@H](CC(=O)O)NC(=O)[C@H](CCCNC(=N)N)NC(=O)[C@H](C)NC(=O)[C@H](CCCNC(=N)N)NC(=O)[C@H](CCCNC(=N)N)NC(=O)[C@H](C)NC(=O)[C@H](CC(=O)O)NC(=O)[C@H](CC(C)C)NC(=O)[C@H](Cc1ccc(O)cc1)NC(=O)[C@H](CCCCN)NC(=O)[C@H](CO)NC(=O)[C@H](CC(C)C)NC(=O)[C@H](CC(=O)O)NC(=O)[C@H](CO)NC(=O)[C@@H](NC(=O)[C@H](Cc1ccccc1)NC(=O)[C@@H](NC(=O)CNC(=O)[C@H](CCC(N)=O)NC(=O)C(C)(C)NC(=O)[C@@H](N)Cc1c[nH]cn1)[C@@H](C)O)[C@@H](C)O)C(C)C)C(=O)N[C@@H](CC(N)=O)C(=O)N[C@@H](CCCCNC(=O)CC[C@H](NC(=O)CC[C@H](NC(=O)COCCOCCNC(=O)COCCOCCNC(=O)CC[C@H](NC(=O)CCCCCCCCCCCCCCCCC(=O)O)C(=O)O)C(=O)O)C(=O)O)C(N)=O` [Chem. 20, N^ε29-[(4S)-4-carboxy-4-[[(4S)-4-carboxy-4-[[2-[2-[2-[[2-[2-[2-[[(4S)-4-carboxy-4-(17-carboxyheptadecanoylamino)butanoyl]amino]ethoxy]ethoxy]acetyl]amino]ethoxy]ethoxy]acetyl]amino]butanoyl]amino]butanoyl]-[Aib2,Leu10,Ala16,Arg20,Ile27,Lys29]-Glucagon amide] (H-H[Aib]QGTFTSDLSKYLDARRARDFVQWLINK([γGlu-γGlu-AEEA-AEEA-γGlu-C18 diacid])-NH2; N-terminus assumed)?
A: ThT Assay Lag time (h) [Assay (III), pH 7.5] [1]: 45.0 h; EC50 (human GLP-1 receptor): 4 pM

Q: Which “ThT Assay Lag time (h) [Assay (III), pH 7.5]” value [1] does the source give for `CC[C@H](C)[C@H](NC(=O)[C@H](CC(C)C)NC(=O)[C@H](Cc1c[nH]c2ccccc12)NC(=O)[C@H](CCC(N)=O)NC(=O)[C@@H](NC(=O)[C@H](Cc1ccccc1)NC(=O)[C@H](CCC(=O)O)NC(=O)[C@H](CCCNC(=N)N)NC(=O)[C@H](C)NC(=O)[C@H](CCCNC(=N)N)NC(=O)[C@H](CCCNC(=N)N)NC(=O)[C@H](C)NC(=O)[C@H](CC(=O)O)NC(=O)[C@H](CC(C)C)NC(=O)[C@H](Cc1ccc(O)cc1)NC(=O)[C@H](CCCCN)NC(=O)[C@H](CO)NC(=O)[C@H](CC(C)C)NC(=O)[C@H](CC(=O)O)NC(=O)[C@H](CO)NC(=O)[C@@H](NC(=O)[C@H](Cc1ccccc1)NC(=O)[C@@H](NC(=O)CNC(=O)[C@H](CCC(N)=O)NC(=O)C(C)(C)NC(=O)[C@@H](N)Cc1c[nH]cn1)[C@@H](C)O)[C@@H](C)O)C(C)C)C(=O)N[C@@H](CC(N)=O)C(=O)N[C@@H](CCCCNC(=O)CC[C@H](NC(=O)CC[C@H](NC(=O)COCCOCCNC(=O)COCCOCCNC(=O)CC[C@H](NC(=O)CCCCCCCCCCCCCCCCC(=O)O)C(=O)O)C(=O)O)C(=O)O)C(N)=O` [Chem. 21, N^ε29-[(4S)-4-carboxy-4-[[(4S)-4-carboxy-4-[[2-[2-[2-[[2-[2-[2-[[(4S)-4-carboxy-4-(17-carboxyheptadecanoylamino)butanoyl]amino]ethoxy]ethoxy]acetyl]amino]ethoxy]ethoxy]acetyl]amino]butanoyl]amino]butanoyl]-[Aib2,Leu10,Ala16,Arg20,Glu21,Ile27,Lys29]-Glucagon amide] (H-H[Aib]QGTFTSDLSKYLDARRAREFVQWLINK([γGlu-γGlu-AEEA-AEEA-γGlu-C18 diacid])-NH2; N-terminus assumed) here?
A: Its value is 45.0 h.

Q: And the EC50 (human GLP-1 receptor)?
A: Its EC50 is 3 pM.

Q: What does the source list for `CC[C@H](C)[C@H](NC(=O)[C@H](CC(C)C)NC(=O)[C@H](Cc1c[nH]c2ccccc12)NC(=O)[C@H](C)NC(=O)[C@@H](NC(=O)[C@H](Cc1ccccc1)NC(=O)[C@H](CC(=O)O)NC(=O)[C@H](CCCNC(=N)N)NC(=O)[C@H](C)NC(=O)[C@H](CCCNC(=N)N)NC(=O)[C@H](CCCNC(=N)N)NC(=O)[C@H](CC(C)C)NC(=O)[C@H](CC(=O)O)NC(=O)[C@H](CC(C)C)NC(=O)[C@H](Cc1ccc(O)cc1)NC(=O)[C@H](CCCCN)NC(=O)[C@H](CO)NC(=O)[C@H](CC(C)C)NC(=O)[C@H](CC(=O)O)NC(=O)[C@H](CO)NC(=O)[C@@H](NC(=O)[C@H](Cc1ccccc1)NC(=O)[C@@H](NC(=O)CNC(=O)[C@H](CCC(N)=O)NC(=O)C(C)(C)NC(=O)[C@@H](N)Cc1c[nH]cn1)[C@@H](C)O)[C@@H](C)O)C(C)C)C(=O)N[C@@H](CC(N)=O)C(=O)N[C@@H](CCCCNC(=O)CC[C@H](NC(=O)CC[C@H](NC(=O)COCCOCCNC(=O)COCCOCCNC(=O)CC[C@H](NC(=O)CCCCCCCCCCCCCCCCC(=O)O)C(=O)O)C(=O)O)C(=O)O)C(N)=O` [Chem. 24, N^ε29-[(4S)-4-carboxy-4-[[(4S)-4-carboxy-4-[[2-[2-[2-[[2-[2-[2-[[(4S)-4-carboxy-4-(17-carboxyheptadecanoylamino)butanoyl]amino]ethoxy]ethoxy]acetyl]amino]ethoxy]ethoxy]acetyl]amino]butanoyl]amino]butanoyl]-[Aib2,Leu10,Leu16,Arg20,Ala24,Ile27,Lys29]-Glucagon amide] (H-H[Aib]QGTFTSDLSKYLDLRRARDFVAWLINK([γGlu-γGlu-AEEA-AEEA-γGlu-C18 diacid])-NH2; N-terminus assumed)?
A: ThT Assay Lag time (h) [Assay (III), pH 7.5] [1]: 45.0 h; EC50 (human GLP-1 receptor): 3 pM

Q: What does the source list for `CC[C@H](C)[C@H](NC(=O)[C@H](CC(C)C)NC(=O)[C@H](Cc1c[nH]c2ccccc12)NC(=O)[C@H](CCC(N)=O)NC(=O)[C@@H](NC(=O)[C@H](Cc1ccccc1)NC(=O)[C@H](CCC(=O)O)NC(=O)[C@H](CCCNC(=N)N)NC(=O)[C@H](C)NC(=O)[C@H](CCCNC(=N)N)NC(=O)[C@H](CCCNC(=N)N)NC(=O)[C@H](CO)NC(=O)[C@H](CCC(=O)O)NC(=O)[C@H](CC(C)C)NC(=O)[C@H](Cc1ccc(O)cc1)NC(=O)[C@H](CCCCN)NC(=O)[C@H](CO)NC(=O)[C@H](CC(C)C)NC(=O)[C@H](CC(=O)O)NC(=O)[C@H](CO)NC(=O)[C@@H](NC(=O)[C@H](Cc1ccccc1)NC(=O)[C@@H](NC(=O)CNC(=O)[C@H](CCC(N)=O)NC(=O)C(C)(C)NC(=O)[C@@H](N)Cc1c[nH]cn1)[C@@H](C)O)[C@@H](C)O)C(C)C)C(=O)N[C@@H](CCCCNC(=O)CC[C@H](NC(=O)CC[C@H](NC(=O)COCCOCCNC(=O)COCCOCCNC(=O)CC[C@H](NC(=O)CC[C@H](NC(=O)CCCCCCCCCCCCCCCCC(=O)O)C(=O)O)C(=O)O)C(=O)O)C(=O)O)C(=O)N[C@H](C(N)=O)[C@@H](C)O` [Chem. 25, N^ε28-[(4S)-4-carboxy-4-[[(4S)-4-carboxy-4-[[2-[2-[2-[[2-[2-[2-[[(4S)-4-carboxy-4-[[(4S)-4-carboxy-4-(17-carboxyheptadecanoylamino)butanoyl]amino]butanoyl]amino]ethoxy]ethoxy]acetyl]amino]ethoxy]ethoxy]acetyl]amino]butanoyl]amino]butanoyl]-[Aib2,Leu10,Glu15,Arg20,Glu21,Ile27,Lys28]-Glucagon amide] (H-H[Aib]QGTFTSDLSKYLESRRAREFVQWLIK([γGlu-γGlu-AEEA-AEEA-γGlu-γGlu-C18 diacid])T-NH2; N-terminus assumed)?
A: ThT Assay Lag time (h) [Assay (III), pH 7.5] [1]: 23.0 h; EC50 (human GLP-1 receptor): 2 pM

Q: With `CC[C@H](C)[C@H](NC(=O)[C@H](CC(=O)O)NC(=O)[C@H](CO)NC(=O)[C@@H](NC(=O)[C@H](Cc1ccccc1)NC(=O)[C@@H](NC(=O)CNC(=O)[C@H](CCC(N)=O)NC(=O)C1(NC(=O)[C@@H](N)Cc2c[nH]cn2)CCC1)[C@@H](C)O)[C@@H](C)O)C(=O)N[C@@H](CO)C(=O)N[C@@H](CCCCN)C(=O)N[C@@H](Cc1ccc(O)cc1)C(=O)N[C@@H](CC(C)C)C(=O)N[C@@H](CCC(=O)O)C(=O)N[C@@H](CO)C(=O)N[C@@H](CCCNC(=N)N)C(=O)N[C@@H](CCCNC(=N)N)C(=O)N[C@@H](C)C(=O)N[C@@H](CCCNC(=N)N)C(=O)N[C@@H](CCC(=O)O)C(=O)N[C@@H](Cc1ccccc1)C(=O)N[C@H](C(=O)N[C@@H](CCC(N)=O)C(=O)N[C@@H](Cc1c[nH]c2ccccc12)C(=O)N[C@@H](CC(C)C)C(=O)N[C@H](C(=O)N[C@@H](CCCCNC(=O)CC[C@H](NC(=O)CC[C@H](NC(=O)COCCOCCNC(=O)COCCOCCNC(=O)CC[C@H](NC(=O)CC[C@H](NC(=O)CCCCCCCCCCCCCCCCC(=O)O)C(=O)O)C(=O)O)C(=O)O)C(=O)O)C(=O)N[C@H](C(N)=O)[C@@H](C)O)[C@@H](C)CC)C(C)C` [Chem. 26, N^ε28-[(4S)-4-carboxy-4-[[(4S)-4-carboxy-4-[[2-[2-[2-[[2-[2-[2-[[(4S)-4-carboxy-4-[[(4S)-4-carboxy-4-(17-carboxyheptadecanoylamino)butanoyl]amino]butanoyl]amino]ethoxy]ethoxy]acetyl]amino]ethoxy]ethoxy]acetyl]amino]butanoyl]amino]butanoyl]-[Acb2,Ile10,Glu15,Arg20,Glu21,Ile27,Lys28]-Glucagon amide] (H-H[Ac4c]QGTFTSDISKYLESRRAREFVQWLIK([γGlu-γGlu-AEEA-AEEA-γGlu-γGlu-C18 diacid])T-NH2; N-terminus assumed) as the compound, how does the “ThT Assay Lag time (h) [Assay (III), pH 7.5]” value [1] read?
A: Its value is 45.0 h.

Q: And the EC50 (human GLP-1 receptor)?
A: Its EC50 is 2 pM.

Reference: patent US10570184B2, “GLP-1/glucagon receptor co-agonists for medical use” (Novo Nordisk A/S, priority 2014, dated 2020)
